Values of other authors as cited in patent US12138235B2, “Cape-loaded targeted microvesicular cancer drug and method for developing the same” (YEDITEPE UNIVERSITESI, priority 2017, dated 2024).

Columns and labels:
[1] = test system: ME180 cervical cancer cell lines; conditions: CAPE 50 μM
[2] = rats, prophylactic administration
[3] = test system: MCF-7, MDA-MB-231 and TNBC breast cancer cell lines; conditions: CAPE 40 μM
[4] = rats
[5] = test system: LNCaP, DU-145 and PC-3 prostate cancer cell lines
breast cancer stem cells = conditions: CAPE 40 μM
[6] = test system: TW2.6 oral squamous cell carcinoma cell line; conditions: CAPE 100 μM
[7] = test system: SK-1 Hep1 liver cancer cell line; conditions: combined treatment of CAPE 30 μg/ml and TRAIL
[8] = test system: SH-SY5Y neuroblastoma cell line; conditions: CAPE 4-20 μM

In the case of `O=C(/C=C/c1ccc(O)c(O)c1)OCCc1ccccc1` [CAPE, caffeic acid phenethyl ester], the “proliferation, cell cycle arrest, apoptosis” value [1] is given as “prevents proliferation by inducing S and G2/M phase cell cycle arrests and induces apoptosis”, the “damage caused by doxorubicin in kidney, heart and brain tissues” value [2] is given as “prevented the damage” and the “liver damage depending on administration of cisplatin and tamoxifen” value [2] is given as “prevented the damage”. The “cell proliferation, cell cycle arrest, apoptosis, angiogenesis” value [3] was “dose-dependently stops cell proliferation, induces cell cycle arrest and apoptosis, and suppresses angiogenesis”, the “radiation induced lung injury” value [4] was “decreased radiation induced lung injury” and the “cell proliferation and Akt signaling pathway” value [5] was “dose-dependently inhibits cell proliferation”. The “proliferation of breast cancer stem cells” value (breast cancer stem cells) was “inhibits proliferation of breast cancer stem cells”, the “cell cycle phase populations and apoptosis” value [6] was “decreased G1 phase cell population, increased G2/M phase cell population and induced apoptosis” and the “caspase activation, cell death receptors, apoptosis” value [7] was “caspase activation increased, cell death receptors were activated via JNK and p38 signaling pathways and apoptosis was induced”. The “effect in SH-SY5Y cells” value [8] was “no effect was observed”.
